From patent EP0115820A2, “Cephalosporin derivatives and process for their preparation” (Kaken Pharmaceutical Co., Ltd., priority 1983, dated 1984)

What was measured:
Assay in all cases: Minimum inhibitory concentration (MIC)
Type in all cases: cell-based
[1] = tested on: Proteus vulgaris GN-76; settings: GN76; Proteus vulgaris GN-76; bacterial suspension 10^6 cells/ml; sodium salts tested; read-out: Minimum inhibitory concentration
Description: (§1) The cephalosporin derivatives of the present invention are novel substances, and the antimicrobial activities of their sodium salts are shown by the minimum inhibitory concentrations (MIC, µg/ml) in Table 1, as compared with a typical known cephalosporin compound.

[2] = tested on: Klebsiella pneumoniae No. 42; settings: Klebsiella pneumoniae No. 42; bacterial suspension 10^6 cells/ml; sodium salts tested; read-out: Minimum inhibitory concentration
Description: as §1

[3] = tested on: Escherichia coli NIHJ JC-2; settings: NIHJJC2; Escherichia coli NIHJ JC-2; bacterial suspension 10^6 cells/ml; sodium salts tested; read-out: Minimum inhibitory concentration
Description: as §1

[4] = tested on: Serratia marcescens No. 16-2; settings: NO.162; Serratia marcescens No. 16-2; bacterial suspension 10^6 cells/ml; sodium salts tested; read-out: Minimum inhibitory concentration
Description: as §1

[5] = tested on: Pseudomonas aeruginosa K-13; settings: K13; Pseudomonas aeruginosa K-13; bacterial suspension 10^6 cells/ml; sodium salts tested; read-out: Minimum inhibitory concentration
Description: as §1

[6] = tested on: Pseudomonas aeruginosa Y-1; settings: Y1; Pseudomonas aeruginosa Y-1; bacterial suspension 10^6 cells/ml; sodium salts tested; read-out: Minimum inhibitory concentration
Description: as §1

[7] = tested on: Pseudomonas aeruginosa E-2; settings: E2; Pseudomonas aeruginosa E-2; bacterial suspension 10^6 cells/ml; sodium salts tested; read-out: Minimum inhibitory concentration
Description: as §1

[8] = tested on: Staphylococcus aureus 209 P JC-1; settings: 209PJC1; Staphylococcus aureus 209 P JC-1; bacterial suspension 10^6 cells/ml; sodium salts tested; read-out: Minimum inhibitory concentration
Description: as §1

Structure (SMILES)	MIC [1]	MIC [2]	MIC [3]	MIC [4]	MIC [5]	MIC [6]	MIC [7]	MIC [8]
CO[C@@]1(NC(=O)C(NC(=O)c2ccc(OC(C)=O)c(OC(C)=O)c2)c2csc(N)n2)C(=O)N2C(C(=O)O)=C(COC(C)=O)CS[C@@H]21 (mixture of isomers) [Example 6, 7α-methoxy-7β-[DL-2-(3,4-diacetoxy-benzoylamino)-2-(2-aminothiazol-4-yl)acetamido]-cephalosporic acid]	12.5 mg/L	0.39 mg/L	3.12 mg/L	6.25 mg/L	1.56 mg/L	0.78 mg/L	0.78 mg/L	1.56 mg/L
CC(=O)OCC1=C(C(=O)O)N2C(=O)[C@@H](NC(=O)C(NC(=O)c3ccccc3OC(C)=O)c3csc(N)n3)[C@H]2SC1 (mixture of isomers) [Example 15, 7β-[DL-2-(2-acetoxybenzoylamino)-2-(2-aminothiazol-4-yl)acetamido]cephalosporic acid]	6.25 mg/L	6.25 mg/L	1.56 mg/L	200 mg/L	25 mg/L	50 mg/L	25 mg/L	0.39 mg/L
CC(=O)OCC1=C(C(=O)O)N2C(=O)[C@@H](NC(=O)C(NC(=O)c3cc(O)c(O)c(O)c3)c3csc(N)n3)[C@H]2SC1 (mixture of isomers) [Example 25, 7β-[DL-2-(3,4,5-trihydroxy-benzoylamino)-2-(2-aminothiazol-4-yl)acetamido]-cephalosporic acid]	1.56 mg/L	0.1 mg/L	0.2 mg/L	> 100 mg/L	0.39 mg/L	0.1 mg/L	0.2 mg/L	0.2 mg/L
CC(=O)Oc1ccc(C(=O)NC(C(=O)N[C@@H]2C(=O)N3C(C(=O)O)=C(CSc4nnnn4C)CS[C@H]23)c2csc(N)n2)cc1OC(C)=O (mixture of isomers) [Example 1, 7β-[DL-2-(3,4-diacetoxybenzoylamino)-2-(2-aminothiazol-4-yl)acetamido]-3-(1-methyl-1H-tetrazol-5-yl-thiomethyl)-3-cephem-4-carboxylic acid]	0.39 mg/L	0.1 mg/L	0.2 mg/L	6.25 mg/L	0.2 mg/L	0.05 mg/L	0.2 mg/L	0.78 mg/L
CCOC(=O)Oc1ccc(C(=O)NC(C(=O)N[C@]2(OC)C(=O)N3C(C(=O)O)=C(COC(C)=O)CS[C@@H]32)c2csc(N)n2)cc1OC(=O)OCC (mixture of isomers) [Example 13, 7α -methoxy-7β-[DL-2-(3,4-diethoxy-carbonyloxybenzoylamino)-2-(2-aminothiazol-4-yl)-acetamido]cephalosporic acid]	6.25 mg/L	0.39 mg/L	12.5 mg/L	3.12 mg/L	1.56 mg/L	0.78 mg/L	0.78 mg/L	1.56 mg/L
CC(=O)OCC1=C(C(=O)O)N2C(=O)[C@@H](NC(=O)C(NC(=O)c3ccc(O)c(O)c3)c3csc(N)n3)[C@H]2SC1 (mixture of isomers) [Example 20, 7β-[DL-2-(3,4-dihydroxybenzoylamino)-2-(2-aminothiazol-4-yl)acetamido]cephalosporic acid]	0.2 mg/L	0.05 mg/L	0.39 mg/L	6.25 mg/L	0.2 mg/L	0.05 mg/L	0.1 mg/L	0.39 mg/L
CCOC(=O)Oc1ccc(C(=O)NC(C(=O)N[C@@H]2C(=O)N3C(C(=O)O)=C(COC(C)=O)CS[C@H]23)c2csc(N)n2)cc1OC(=O)OCC (mixture of isomers) [Example 19, 7β-[DL-2-(3,4-diethoxycarbonyloxy-benzoylamino)-2-(2-aminothiazol-4-yl)acetamido]-cephalosporic acid]	0.39 mg/L	0.05 mg/L	0.39 mg/L	6.25 mg/L	0.2 mg/L	0.05 mg/L	0.2 mg/L	0.39 mg/L
